Results published in PMC11582173, “Synthesis, cytotoxicity, anti-inflammatory, anti-metastatic and anti-oxidant activities of novel chalcones incorporating 2-phenoxy-N-arylacetamide and thiophene moieties: induction of apoptosis in MCF7 and HEP2 cells” (Naunyn-Schmiedeberg's Archives of Pharmacology, 2024).
Several values for one entry are separate records, joined by “and”; a condition that tells them apart may be missing. Equal entries are not always repeated.

Key:
Caspase 9 = test: ELISA, Caspase 9 concentration; assay type: cell-based, human
Description: The concentrations of matrix metalloproteinase-2 (MMP2), matrix metalloproteinase-9 (MMP9), Bcl2, BAX, P53, Malondialdehyde (MDA), Glutathione (GSH), caspase 8, caspase 9 and IL-6 were measured quantitatively in 5c treated MCF7 and HEP2 cells using ELISA (Enzyme-Linked Immunosorbent Assay) (Table 4). Gelatinases are a collective word for MMP-2 and MMP-9, where MMP-2 is gelatinase-A and MMP-9 is gelatinase-B. Solid tumor invasion, metastasis, and angiogenesis have long been linked to gelatinases (Das et al. [2021]). […] Bcl2 is a crucial protein that targets apoptosis inhibition. It is regarded as a predictive biomarker or therapeutic target in the diagnosis of cancer due to its broad expression in a variety of cancers (Porter et al. [2009]). […] The pro-apoptotic protein BAX permeabilizes the mitochondrial outer membrane by changing from a cytosolic monomer to a hazardous oligomer triggering the apoptosis process (Fulda and Debatin [2006]). […] P53 transcription factor performs an essential tumor suppressor role by coordinating a wide range of physiological responses, including DNA repair, cell cycle arrest, cellular senescence, cell death, cell differentiation, and metabolism (Liebl and Hofmann [2021]). It was activated in MCF7 and HEP2-treated cells with values (4.28 and 3.109 ng/mL), respectively, compared to their controls (3.44 and 2.06 ng/mL). […]

MCF7 cells = test: Wound healing scratch assay, MCF7; assay type: cell-based, human; settings: MCF7, 5c at its IC50, 48 h; untreated C0 518.531±12.437, C48 h 160.647±61.276
Description: To examine the effect of chalcone 5c on the migration properties of the MCF7 and HEP2 cells, the wound-healing scratch assay was used. […] Chalcone 5c at its IC50 reduced the ability to close the scrape wound and decreased the number of migrating MCF7 and HEP2 cells compared to the untreated cells (Fig. 4 and Table 6). The scratch gap percentage in 5c treated MCF7 was 344.684±41.224 relative to the control cells (160.647±61.276) after 48 h of treatment. The scratch gap in HEP2 treated with 5c was 567.281±112.789 compared to the untreated control HEP2 cells (211.604±79.883) after 48 h.
MCF7 and HEP2 treated and untreated cells were detached from the tissue culture plate using 0.25% Trypsin-EDTA solution. Cells pellet was prepared in a 15 mL conical tube by centrifugation. The supernatant was aspirated, and the cells were re-suspended in culture media. The appropriate number of cells was platted in a 6-well plate for 100% confluence in 24 hours. In a sterile environment (typically a biosafety hood), a 200 μL pipette tip was used to press firmly against the […] of the tissue culture plate and swiftly made a vertical wound down through the cell monolayer. Carefully, the media and cell debris were aspirated. Slowly, enough culture media was added against the good wall to cover the bottom of the well and avoid detaching additional cells. […]

COc1ccc(NC(=O)COc2ccc(C=CC(=O)c3cccs3)cc2)cc1 [Compound 5c, N-(4-Methoxyphenyl)-2-(4-(3-oxo-3-(thiophen-2-yl)prop-1-en-1-yl)phenoxy)acetamide]
Caspase9 concentration (Caspase 9; 5c treated HEP2 cells, untreated 3.70±0.18): 27.54 ng/mL and 27.54 ± 0.68 ng/mL | Caspase9 concentration (Caspase 9; 5c treated MCF7 cells, untreated 3.66±0.49): 28.03 ng/mL and 28.03 ± 0.49 ng/mL | % Scratch gap (MCF7 cells): 344.684±41.224%
